From patent US5066676A, “Sulfonamido derivative inhibiting the aldose reductase enzyme system and pharmaceutical compositions containing them” (Laboratori Baldacci SpA, priority 1987, dated 1991)

How the values were obtained:
aldose reductase = biological target: T1, aldose reductase (Bos taurus, UniProt P16116); assay: In vitro inhibition of aldose reductase activity of raw extracts from bovine crystalline lens; assay type: biochemical; conditions: glyceraldehyde substrate, NADPH, pH 6.8, 37° C.; read-out: IC50 on the aldose reductase activity of raw extracts originating from bovine crystalline lens
T1 construct: 4 bovine crystalline lenses (8 g) are homogenized by means of Potter in ice bath; from tissue; host or cells: bovine crystalline lens
Experimental: "In vitro" tests have been carried out to evalute the inhibition of the aldose reductase activity, prepared from the extract of bovine crystalline lenses.
PREPARATION OF THE RAW EXTRACTS
4 bovine crystalline lenses (8 g) are homogenized by means of Potter in ice bath with 40 ml of 50 mM phosphate buffer, pH 6.8, containing 2-mercaptoethanol pH ([…]). After centrifugation (12.000×g -20 min-4° C.) the supernatant is brought to 40% saturation with an ammonium sulphate and centrifugated again (14.000×g). The supernatant is then brought to the 80% saturation ((NH4)2 SO4) and, after centrifugation for 20 minutes and at 14.000×g, the sedimented matter is recovered and suspended in 7 ml of phosphate buffer. The enzymatic preparation is dialyzed by ultrafiltration with AMICON ultrafiltration cell.
DOSAGE OF THE ENZYMATIC ACTIVITY
The reference cuvette contains all the several substances apart from the substrate.

rat = assay: Toxicity per oral administration repeated in the rat (30 days); assay type: in vivo; conditions: 30 days, 100, 200, 300 mg/kg/die
Excerpt: Toxicity per oral administration repeated in the rat (30 days)--Test protocol:
Compound Doses mg/kg/die

[1] = test system: galactosemic cataract in the rat; assay: Action on the appearance of the galactosemic cataract (rat); assay type: in vivo; set-up: appearance of the galactosemic cataract: unit not given here
Experimental: (§1) With the compound bearing the abbreviation ARI 6 the following tests have been carried out in the rat and in the rabbit.
Action on the appearance of the galactosemic cataract (rat)
Effects of the administration of ARI-6 (5 and 25 mg/kg/die, os)
on the appearance of the galactosemic cataract in the rat.
[…] In the brackets the number of animals for each group is indicated.
The diet contains D-galactose 50%.
Effects of the administration of ARI-1 (5 and 25 mg/kg/die, os)

[2] = Acute toxicity of ARI 6 in the rat; conditions: in vivo
[3] = Acute toxicity of ARI 6 in the mouse; conditions: in vivo
[4] = test system: diabetic cataract in the rat; assay: Action on the appearance of the diabetic cataract (rat); assay type: in vivo; conditions: for appearance of the diabetic cataract: Table 5, 25 mg/kg/die per os
Experimental: as §1
Action on the appearance of the diabetic cataract (rat).
Effects of the administration of ARI 6 (25 mg/kg/die, per os)
on the appearance of the diabetic cataract in the rat.
The values are expressed as percentages. Within brackets there are indicated the animals for each group.
Effects of the administration of ARI-1 (25 mg/kg/die, per os)

## CN(CC(=O)O)S(=O)(=O)c1ccc2oc3ccc(Cl)cc3c(=O)c2c1 [ARI 6, 7-chloro-2 (N-methyl-N-carboxymethyl) sulfamoylxanthone]
Aldose reductase
  IC50: 9.2 µM
rat
  Microscope and hystomorphological examination: no alteration
  death: No death
rat; vs control group
  Behaviour and general status: no variation with respect to the control group
rat; vs controls
  Biochemical and hematological parameters: no significant variation with respect to the controls
[1]; Table 4, 5 mg/kg/die os, day 5 of diet
  appearance of the galactosemic cataract: 0.0
[1]; Table 4, 5 mg/kg/die os, day 10 of diet
  appearance of the galactosemic cataract: 0.0
[1]; Table 4, 5 mg/kg/die os, day 15 of diet
  appearance of the galactosemic cataract: 0.0
[1]; Table 4, 5 mg/kg/die os, day 20 of diet
  appearance of the galactosemic cataract: 0.0
[1]; Table 4, 5 mg/kg/die os, day 25 of diet
  appearance of the galactosemic cataract: 15.0
[1]; Table 4, 5 mg/kg/die os, day 30 of diet
  appearance of the galactosemic cataract: 20.0
[1]; Table 4, 5 mg/kg/die os, day 35 of diet
  appearance of the galactosemic cataract: 40.0
[1]; Table 4, 5 mg/kg/die os, day 40 of diet
  appearance of the galactosemic cataract: 100.0
[1]; Table 4, 5 mg/kg/die os, day 45 of diet
  appearance of the galactosemic cataract: 100.0
[1]; Table 4, 5 mg/kg/die os, day 50 of diet
  appearance of the galactosemic cataract: 100.0
[1]; Table 4, 25 mg/kg/die os, day 5 of diet
  appearance of the galactosemic cataract: 0.0
[1]; Table 4, 25 mg/kg/die os, day 10 of diet
  appearance of the galactosemic cataract: 0.0
[1]; Table 4, 25 mg/kg/die os, day 15 of diet
  appearance of the galactosemic cataract: 0.0
[1]; Table 4, 25 mg/kg/die os, day 20 of diet
  appearance of the galactosemic cataract: 0.0
[1]; Table 4, 25 mg/kg/die os, day 25 of diet
  appearance of the galactosemic cataract: 0.0
[1]; Table 4, 25 mg/kg/die os, day 30 of diet
  appearance of the galactosemic cataract: 0.0
[1]; Table 4, 25 mg/kg/die os, day 35 of diet
  appearance of the galactosemic cataract: 0.0
[1]; Table 4, 25 mg/kg/die os, day 40 of diet
  appearance of the galactosemic cataract: 15.0
[1]; Table 4, 25 mg/kg/die os, day 45 of diet
  appearance of the galactosemic cataract: 25.0
[1]; Table 4, 25 mg/kg/die os, day 50 of diet
  appearance of the galactosemic cataract: 100.0
[1]; rat, 5 mg/kg, vs controls
  delay for the appearance of the galactosemic cataract: about 20 days
[1]; rat, higher doses
  effect on appearance of the galactosemic cataract (in words): A more intense effect
[2]; ip, read-out: Acute toxicity in the rat ip
  LD50: 1000 mg/kg
[2]; po, per os, read-out: Acute toxicity in the rat per os
  LD50: 1000 mg/kg
[3]; ip, read-out: Acute toxicity in the mouse ip
  LD50: 1000 mg/kg
[3]; po, per os, read-out: Acute toxicity in the mouse per os
  LD50: 1000 mg/kg
[4]; day 5 from streptozotocine
  appearance of the diabetic cataract: 0.0%
[4]; day 10 from streptozotocine
  appearance of the diabetic cataract: 0.0%
[4]; day 15 from streptozotocine
  appearance of the diabetic cataract: 0.0%
[4]; day 20 from streptozotocine
  appearance of the diabetic cataract: 0.0%
[4]; day 25 from streptozotocine
  appearance of the diabetic cataract: 0.0%
[4]; day 30 from streptozotocine
  appearance of the diabetic cataract: 0.0%
[4]; day 35 from streptozotocine
  appearance of the diabetic cataract: 0.0%
[4]; day 40 from streptozotocine
  appearance of the diabetic cataract: 20.0%
[4]; day 45 from streptozotocine
  appearance of the diabetic cataract: 30.0%
[4]; day 50 from streptozotocine
  appearance of the diabetic cataract: 100.0%
[4]; rat, 25 mg/kg, vs controls
  delay of the appearance of the diabetic cataract: about 30 days
